From patent publication US11236087B2, “Highly active pyrazolo-piperidine substituted indole-2-carboxamides active against the hepatitis B virus (HBV)” (AiCuris GmbH & Co. KG, priority 2017, dated 2022)
Like-named read-outs stand apart in the source and are kept apart here.

Experiments:
HBV = assay: Determination of HBV DNA from the supernatants of HepAD38 cells (anti-HBV activity); assay type: cell-based, hepatitis B virus; settings: Hepatitis B virus, read-out: Cell Activity (EC50)
Method in brief: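 HepAD38 cells, tetracycline withdrawn to induce HBV, treated with serial half-log compound dilutions; on day 6 HBV DNA purified from filtered supernatant and quantified by real-time PCR against HBV plasmid standards; EC50 from relative copy numbers by non-linear regression, three experiments in triplicate.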

[1] = Cell viability assay (AlamarBlue) in HepAD38 cells; settings: human
HBV core protein = target: T1, HBV core protein (UniProt P03146); assay: Biochemical capsid assembly assay (fluorescence quenching); set-up: species or system hepatitis B virus; settings: read-out: Assembly Activity (IC50); BODIPY-FL labelled core protein, 300 μM NaCl, read 6 min after start
T1 construct: fused on or other part: BODIPY-FL maleimide label on the C-terminal Cys150
T1 sequence (P03146 whole entry, looked up, the tested form may be a part): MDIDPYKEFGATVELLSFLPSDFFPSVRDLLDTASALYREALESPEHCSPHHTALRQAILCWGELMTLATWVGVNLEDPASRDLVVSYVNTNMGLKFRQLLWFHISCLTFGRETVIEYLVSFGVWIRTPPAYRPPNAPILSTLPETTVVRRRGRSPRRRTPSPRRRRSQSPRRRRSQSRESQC
Procedure: Biochemical Capsid Assembly Assay
The screening for assembly effector activity was done based on a fluorescence quenching assay published by Zlotnick et al. (2007). The C-terminal truncated core protein containing 149 amino acids of the N-terminal assembly domain fused to a unique cysteine residue at position 150 and was expressed in E. coli using the pET expression system (Merck Chemicals, Darmstadt). Purification of core dimer protein was performed using a sequence of size exclusion chromatography steps. In brief, the cell pellet from 1 L BL21 (DE3) Rosetta2 culture expressing the coding sequence of core protein cloned NdeI/XhoI into expression plasmid pET21b was treated for 1 h on ice with a native lysis buffer (Qproteome Bacterial Protein Prep Kit; Qiagen, Hilden). After a centrifugation step the supernatant was precipitated during 2 h stirring on ice with 0.23 g/ml of solid ammonium sulfate. Following further centrifugation the resulting pellet was resolved in buffer A (100 mM Tris, pH 7.5; 100 mM NaCl; 2 mM DTT) and was subsequently loaded onto a buffer A equilibrated CaptoCore 700 column (GE HealthCare, Frankfurt). The column flow through containing the assembled HBV capsid was dialyzed against buffer N (50 mM NaHCO3 pH 9.6; 5 mM DTT) before urea was added to a final concentration of 3M to dissociate the capsid into core dimers for 1.5 h on ice. The protein solution was then loaded onto a 1 L Sephacryl S300 column. After elution with buffer N core dimer containing fractions were identified by SDS-PAGE and subsequently pooled and dialyzed against 50 mM HEPES pH 7.5; […]. To improve the assembly capacity of the purified core dimers a second round of assembly and disassembly starting with the addition of 5 M NaCl and including the size exclusion chromatography steps described above was performed. From the last chromatography step core dimer containing fractions were pooled and stored in aliquots at concentrations between 1.5 to 2.0 mg/ml at −80° C.
Immediately before labelling the core protein was reduced by adding freshly prepared DTT in a final concentration of 20 mM. After 40 min incubation on ice storage buffer and DTT was removed using a Sephadex G-25 column (GE HealthCare, Frankfurt) and 50 mM HEPES, pH 7.5. For labelling 1.6 mg/ml core protein was incubated at 4° C. and darkness overnight with BODIPY-FL maleimide (Invitrogen, Karlsruhe) in a final concentration of 1 mM. After labelling the free dye was removed by an additional desalting step using a Sephadex G-25 column. Labelled core dimers were stored in aliquots at 4° C. In the dimeric state the fluorescence signal of the labelled core protein is high and is quenched during the assembly of the core dimers to high molecular capsid structures. The screening assay was performed in black 384 well microtiter plates in a total assay volume of 10 μl using 50 mM HEPES pH 7.5 and 1.0 to 2.0 μM labelled core protein. Each screening compound was added in 8 different concentrations using a 0.5 log-unit serial dilution starting at a final concentration of 100 μM, 31.6 μM or 10 μM, In any case the DMSO concentration over the entire microtiter plate was 0.5%. The assembly reaction was started by the injection of NaCl to a final concentration of […] which induces the assembly process to approximately 25% of the maximal quenched signal. 6 min after starting the reaction the fluorescence signal was measured using a Clariostar plate reader (BMG Labtech, Ortenberg) with an excitation of 477 nm and an emission of 525 nm. As 100% and 0% assembly control HEPES buffer containing 2.5 M and 0 M NaCl was used. Experiments were performed thrice in triplicates. EC50 values were calculated by non-linear regression analysis using the Graph Pad Prism 6 software (GraphPad Software, La Jolla, USA).

[2] = 144 h, HBV DNA in HepAD38 supernatant, day 6, qPCR

SMILES | EC50 (HBV; [2]) | CC50 at 6 days [1] | IC50 (HBV core protein) | EC50 (HBV; HePAD38, 144 h)
CN(CC(=O)OC(C)(C)C)C(=O)c1n[nH]c2c1CN(C(=O)c1cc3ccccc3[nH]1)CC2 [Example 171, tert-butyl 2-{1-[5-(1H-indole-2-carbonyl)-1H,4H,5H,6H,7H-pyrazolo[4,3-c]pyridin-3-yl]-N-methylformamido}acetate] | 1 to 25 µM | > 10 µM | < 100 µM | 
Cc1noc(-c2n[nH]c3c2CN(C(=O)c2cc4ccccc4[nH]2)CC3)n1 [Example 116, 2-[3-(3-methyl-1,2,4-oxadiazol-5-yl)-1H,4H,5H,6H,7H-pyrazolo[4,3-c]pyridine-5-carbonyl]-1H-indole] | < 100 µM | > 100 µM | 5 to 10 µM | 
CC(C)OC(=O)[C@H](C)NP(=O)(OCCN(C)C(=O)c1n[nH]c2c1CN(C(=O)c1cc3c(Cl)cccc3[nH]1)CC2)Oc1ccccc1 (stereo partly drawn) [Example 67, propan-2-yl (2S)-2-{[(2-{1-[5-(4-chloro-1H-indole-2-carbonyl)-1H,4H,5H,6H,7H-pyrazolo[4,3-c]pyridin-3-yl]-N-methylformamido}ethoxy)(phenoxy)phosphoryl]amino}propanoate] |  | > 32 µM | < 5 µM | < 1 µM
CN(CCS(C)(=O)=O)C(=O)c1n[nH]c2c1CN(C(=O)c1cc3ccccc3[nH]1)CC2 [Example 150, 5-(1H-indole-2-carbonyl)-N-(2-methanesulfonylethyl)-N-methyl-1H,4H,5H,6H,7H-pyrazolo[4,3-c]pyridine-3-carboxamide] | 1 to 25 µM | > 10 µM | < 100 µM | 
O=C(c1cc2ccc(Br)cc2[nH]1)N1CCc2[nH]ncc2C1 [Example 119, 6-bromo-2-{1H,4H,5H,6H,7H-pyrazolo[4,3-c]pyridine-5-carbonyl}-1H-indole] | < 1 µM | > 100 µM | < 5 µM | 
CCNc1n[nH]c2c1CN(C(=O)c1cc3ccccc3[nH]1)CC2 [Example 80, N-ethyl-5-(1H-indole-2-carbonyl)-1H,4H,5H,6H,7H-pyrazolo[4,3-c]pyridin-3-amine] | 1 to 25 µM | > 100 µM | < 100 µM | 
CN(C(=O)c1n[nH]c2c1CN(C(=O)c1cc3ccccc3[nH]1)CC2)C1CC1 [Example 232, N-cyclopropyl-5-(1H-indole-2-carbonyl)-N-methyl-1H,4H,5H,6H,7H-pyrazolo[4,3-c]pyridine-3-carboxamide] | < 1 µM | > 10 µM | < 5 µM | 
COCC1(N(C)C(=O)c2n[nH]c3c2CN(C(=O)c2cc4c(C(C)(F)F)cc(F)cc4[nH]2)CC3)CC1 [Example 205, 5-[4-(1,1-difluoroethyl)-6-fluoro-1H-indole-2-carbonyl]-N-[1-(methoxymethyl)cyclopropyl]-N-methyl-1H,4H,5H,6H,7H-pyrazolo[4,3-c]pyridine-3-carboxamide] | < 1 µM | > 10 µM | < 5 µM | 
O=C(c1cc2ccccc2[nH]1)N1CCc2[nH]nc(C(=O)N3CCS(=O)(=O)CC3)c2C1 [Example 158, 4-[5-(1H-indole-2-carbonyl)-1H,4H,5H,6H,7H-pyrazolo[4,3-c]pyridine-3-carbonyl]-1lambda6-thiomorpholine-1,1-dione] | 1 to 25 µM | > 10 µM | < 100 µM | 
CCc1cc(F)cc2[nH]c(C(=O)N3CCc4n[nH]c(-c5cscn5)c4C3)cc12 [Example 12, 4-ethyl-6-fluoro-2-[3-(1,3-thiazol-4-yl)-2H,4H,5H,6H,7H-pyrazolo[4,3-c]pyridine-5-carbonyl]-1H-indole] | < 1 µM | > 10 µM | < 5 µM | 
O=C(c1cc2c(F)cc(F)cc2[nH]1)N1CCc2[nH]nc(C3CCCO3)c2C1 (stereo not drawn) [Example 339, 4,6-difluoro-2-[3-(oxolan-2-yl)-1H,4H,5H,6H,7H-pyrazolo[4,3-c]pyridine-5-carbonyl]-1H-indole] | < 1 µM | > 10 µM | < 5 µM | 
COCC1(N(C)C(=O)c2n[nH]c3c2CN(C(=O)c2cc4ccccc4[nH]2)CC3)CCC1 [Example 154, 5-(1H-indole-2-carbonyl)-N-[1-(methoxymethyl)cyclobutyl]-N-methyl-1H,4H,5H,6H,7H-pyrazolo[4,3-c]pyridine-3-carboxamide] | < 1 µM | > 10 µM | 5 to 10 µM | 
CCOCC1(N(C)C(=O)c2[nH]nc3c2CN(C(=O)c2cc4cccc(F)c4[nH]2)CC3)CC1 [Example 367, N-[1-(ethoxymethyl)cyclopropyl]-5-(7-fluoro-1H-indole-2-carbonyl)-N-methyl-2H,4H,5H,6H,7H-pyrazolo[4,3-c]pyridine-3-carboxamide] | < 1 µM | > 10 µM | < 5 µM | 
CC(CO)N(C)C(=O)c1n[nH]c2c1CN(C(=O)c1cc3ccccc3[nH]1)CC2 (stereo not drawn) [Example 42, N-(1-hydroxypropan-2-yl)-5-(1H-indole-2-carbonyl)-N-methyl-1H,4H,5H,6H,7H-pyrazolo[4,3-c]pyridine-3-carboxamide] | 1 to 25 µM | > 100 µM | 5 to 10 µM | 
CN(CCO)C(=O)c1n[nH]c2c1CN(C(=O)c1cc3ccc(Cl)cc3[nH]1)CC2 [Example 57, 5-(6-chloro-1H-indole-2-carbonyl)-N-(2-hydroxyethyl)-N-methyl-1H,4H,5H,6H,7H-pyrazolo[4,3-c]pyridine-3-carboxamide] | < 1 µM | > 100 µM | < 5 µM | 
O=C(c1cc2ccccc2[nH]1)N1CCc2[nH]nc(C(=O)N3CCC[C@H](O)C3)c2C1 [Example 162, (3S)-1-[5-(1H-indole-2-carbonyl)-1H,4H,5H,6H,7H-pyrazolo[4,3-c]pyridine-3-carbonyl]piperidin-3-ol] | 1 to 25 µM | > 10 µM | < 100 µM | 
CCc1ccc(F)c2[nH]c(C(=O)N3CCc4[nH]nc(C(=O)N(C)CCO)c4C3)cc12 [Example 9, 5-(4-ethyl-7-fluoro-1H-indole-2-carbonyl)-N-(2-hydroxyethyl)-N-methyl-1H,4H,5H,6H,7H-pyrazolo[4,3-c]pyridine-3-carboxamide] | < 1 µM | > 10 µM | < 5 µM | 
COCC1(N(C)C(=O)c2n[nH]c3c2CN(C(=O)c2cc4c(Cl)cccc4[nH]2)CC3)CC1 [Example 262, 5-(4-chloro-1H-indole-2-carbonyl)-N-[1-(methoxymethyl)cyclopropyl]-N-methyl-1H,4H,5H,6H,7H-pyrazolo[4,3-c]pyridine-3-carboxamide] | < 1 µM | > 10 µM | < 5 µM | 
Cc1cc(F)cc2[nH]c(C(=O)N3CCc4[nH]nc(C56CC(C5)C6)c4C3)cc12 [Example 336, 2-(3-{bicyclo[1.1.1]pentan-1-yl}-1H,4H,5H,6H,7H-pyrazolo[4,3-c]pyridine-5-carbonyl)-6-fluoro-4-methyl-1H-indole] | < 1 µM | > 10 µM | < 5 µM | 
Cc1cccc2[nH]c(C(=O)N3CCc4n[nH]c(-c5cscn5)c4C3)cc12 [Example 23, 4-methyl-2-[3-(1,3-thiazol-4-yl)-2H,4H,5H,6H,7H-pyrazolo[4,3-c]pyridine-5-carbonyl]-1H-indole] | < 1 µM | > 10 µM | < 5 µM | 
